Holding throughout (assay): relative viability (nuclei count vs DMSO), 5 days (fraction); higher = more cells survive
Compound in the test “Carfilzomib + Bortezomib”: CC(C)C[C@H](NC(=O)[C@H](CCc1ccccc1)NC(=O)CN1CCOCC1)C(=O)N[C@@H](Cc1ccccc1)C(=O)N[C@@H](CC(C)C)C(=O)[C@@]1(C)CO1 [Carfilzomib] + CC(C)C[C@H](NC(=O)[C@H](Cc1ccccc1)NC(=O)c1cnccn1)B(O)O [Bortezomib] (partner 0.002 µM)
Summed up: (§1)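 Relative viability equals treated-well nuclei counts divided by vehicle-well nuclei counts. Counts came from 4× images of lung cancer cell lines grown in 1536-well plates for 5 days after pin-tool dosing on the day after seeding. Dosing used one drug alone or a fixed anchor-drug dose plus five library-drug doses (not always all listed) in √10 steps, and values are medians of duplicate plates.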

Compound in the test “Crizotinib + Pemetrexed”: C[C@@H](Oc1cc(-c2cnn(C3CCNCC3)c2)cnc1N)c1c(Cl)ccc(F)c1Cl [Crizotinib] + Nc1nc2[nH]cc(CCc3ccc(C(=O)N[C@@H](CCC(=O)O)C(=O)O)cc3)c2c(=O)[nH]1 [Pemetrexed] (partner 0.2 µM)
Summed up: as §1

Compound in the test “Olaparib + Foretinib”: O=C(c1cc(Cc2n[nH]c(=O)c3ccccc23)ccc1F)N1CCN(C(=O)C2CC2)CC1 [Olaparib] + COc1cc2c(Oc3ccc(NC(=O)C4(C(=O)Nc5ccc(F)cc5)CC4)cc3F)ccnc2cc1OCCCN1CCOCC1 [Foretinib] (partner 0.25 µM)
An outline of the steps:
as §1

Compound in the test “Olaparib + Decitabine”: O=C(c1cc(Cc2n[nH]c(=O)c3ccccc23)ccc1F)N1CCN(C(=O)C2CC2)CC1 [Olaparib] + Nc1ncn([C@H]2C[C@H](O)[C@@H](CO)O2)c(=O)n1 [Decitabine] (partner 2 µM)
An outline of the steps:
as §1

Take NCI-H650: the relative viability in the test with Carfilzomib + Bortezomib (first compound 0.001 µM) amounted to 0.587; in the test with Carfilzomib + Bortezomib (first compound 0.003162 µM), 0.701; in the test with Carfilzomib + Bortezomib (first compound 0.01 µM) it was 0.619; with Carfilzomib + Bortezomib (first compound 0.03162 µM) it was 0.145; with Carfilzomib + Bortezomib (first compound 0.1 µM), 0.157; in the test with Crizotinib + Pemetrexed (first compound 0.01 µM) it was 1.09. For the same cell line, the relative viability with Crizotinib + Pemetrexed (first compound 0.03162 µM) was found to be 0.907; in the test with Crizotinib + Pemetrexed (first compound 0.1 µM), 0.956; with Crizotinib + Pemetrexed (first compound 1 µM), 0.984; in the test with Olaparib + Foretinib (first compound 0.08 µM), 1.11; with Olaparib + Foretinib (first compound 0.253 µM), 1.02; with Olaparib + Foretinib (first compound 2.53 µM), 0.909. Also, the relative viability worked out at 0.794 with Olaparib + Foretinib (first compound 8 µM); 0.266 with Olaparib + Decitabine (first compound 0.08 µM); 0.293 with Olaparib + Decitabine (first compound 0.253 µM); 0.241 in the test with Olaparib + Decitabine (first compound 2.53 µM); 0.281 in the test with Olaparib + Decitabine (first compound 8 µM).
Regarding NCI-H661, the relative viability with Carfilzomib + Bortezomib (first compound 0.001 µM) was 0.801; with Carfilzomib + Bortezomib (first compound 0.003162 µM) it was 0.965; in the test with Carfilzomib + Bortezomib (first compound 0.01 µM), 0.842; with Carfilzomib + Bortezomib (first compound 0.03162 µM), 0.384; with Carfilzomib + Bortezomib (first compound 0.1 µM) it was 0.214; in the test with Crizotinib + Pemetrexed (first compound 0.01 µM), 0.82. The relative viability turned out to be 0.939 with Crizotinib + Pemetrexed (first compound 0.03162 µM); 0.854 with Crizotinib + Pemetrexed (first compound 0.1 µM); 1 in the test with Crizotinib + Pemetrexed (first compound 0.3162 µM); 0.904 with Crizotinib + Pemetrexed (first compound 1 µM); 1.16 with Olaparib + Foretinib (first compound 0.08 µM); 0.97 with Olaparib + Foretinib (first compound 0.253 µM). Further, the relative viability in the test with Olaparib + Foretinib (first compound 2.53 µM) is 0.948; with Olaparib + Foretinib (first compound 8 µM), 0.775; with Olaparib + Decitabine (first compound 0.08 µM) it was 0.454; in the test with Olaparib + Decitabine (first compound 0.253 µM), 0.434; in the test with Olaparib + Decitabine (first compound 2.53 µM), 0.4; in the test with Olaparib + Decitabine (first compound 8 µM) it was 0.382.
On to NCI-H838, for which the relative viability was 0.772 with Carfilzomib + Bortezomib (first compound 0.001 µM); 0.838 with Carfilzomib + Bortezomib (first compound 0.003162 µM); 0.624 with Carfilzomib + Bortezomib (first compound 0.01 µM); 0.179 with Carfilzomib + Bortezomib (first compound 0.03162 µM); 0.114 with Carfilzomib + Bortezomib (first compound 0.1 µM); 0.214 in the test with Crizotinib + Pemetrexed (first compound 0.01 µM). The relative viability in the test with Crizotinib + Pemetrexed (first compound 0.03162 µM) is 0.237; in the test with Crizotinib + Pemetrexed (first compound 0.1 µM), 0.253; in the test with Crizotinib + Pemetrexed (first compound 0.3162 µM), 0.265; in the test with Crizotinib + Pemetrexed (first compound 1 µM), 0.24; with Olaparib + Foretinib (first compound 0.08 µM), 1.18; with Olaparib + Foretinib (first compound 0.253 µM) it was 0.921. Moreover, the relative viability with Olaparib + Foretinib (first compound 2.53 µM) worked out at 1.02; with Olaparib + Foretinib (first compound 8 µM) it was 1.01; with Olaparib + Decitabine (first compound 0.08 µM) it was 0.416; with Olaparib + Decitabine (first compound 0.253 µM), 0.32; in the test with Olaparib + Decitabine (first compound 2.53 µM) it was 0.354; in the test with Olaparib + Decitabine (first compound 8 µM) it was 0.323.
In the case of NCI-H1355, the relative viability with Carfilzomib + Bortezomib (first compound 0.001 µM) is 1.07; with Carfilzomib + Bortezomib (first compound 0.003162 µM), 1.1; with Carfilzomib + Bortezomib (first compound 0.01 µM), 1.15; with Carfilzomib + Bortezomib (first compound 0.03162 µM), 0.315; in the test with Carfilzomib + Bortezomib (first compound 0.1 µM) it was 0.157; with Crizotinib + Pemetrexed (first compound 0.01 µM) it was 0.998. Further, the relative viability with Crizotinib + Pemetrexed (first compound 0.03162 µM) was found to be 0.928; with Crizotinib + Pemetrexed (first compound 0.1 µM), 1.08; with Crizotinib + Pemetrexed (first compound 0.3162 µM), 0.976; with Crizotinib + Pemetrexed (first compound 1 µM) it was 1.07; with Olaparib + Foretinib (first compound 0.08 µM) it was 1.12; in the test with Olaparib + Foretinib (first compound 0.253 µM), 0.941. Besides, the relative viability with Olaparib + Foretinib (first compound 2.53 µM) worked out at 1; with Olaparib + Foretinib (first compound 8 µM) it was 0.832; with Olaparib + Decitabine (first compound 0.08 µM), 0.37; with Olaparib + Decitabine (first compound 0.253 µM), 0.345; with Olaparib + Decitabine (first compound 2.53 µM), 0.304; with Olaparib + Decitabine (first compound 8 µM) it was 0.31.
As to NCI-H1437, the relative viability in the test with Carfilzomib + Bortezomib (first compound 0.001 µM) turned out to be 0.473; with Carfilzomib + Bortezomib (first compound 0.003162 µM), 0.5; with Carfilzomib + Bortezomib (first compound 0.01 µM), 0.437; with Carfilzomib + Bortezomib (first compound 0.03162 µM), 0.176; with Carfilzomib + Bortezomib (first compound 0.1 µM), 0.13; with Crizotinib + Pemetrexed (first compound 0.01 µM) it was 0.338. The relative viability in the test with Crizotinib + Pemetrexed (first compound 0.03162 µM) stood at 0.3; in the test with Crizotinib + Pemetrexed (first compound 0.1 µM) it was 0.319; with Crizotinib + Pemetrexed (first compound 0.3162 µM), 0.314; with Crizotinib + Pemetrexed (first compound 1 µM) it was 0.325; with Olaparib + Foretinib (first compound 0.08 µM), 1.3; with Olaparib + Foretinib (first compound 0.253 µM), 1.12. For the same cell line, the relative viability with Olaparib + Foretinib (first compound 2.53 µM) amounted to 1.08; in the test with Olaparib + Foretinib (first compound 8 µM), 0.914; with Olaparib + Decitabine (first compound 0.08 µM), 0.458; with Olaparib + Decitabine (first compound 0.253 µM) it was 0.391; in the test with Olaparib + Decitabine (first compound 2.53 µM), 0.434; with Olaparib + Decitabine (first compound 8 µM), 0.386.
For the cell line NCI-H1650, the relative viability is 0.19 with Carfilzomib + Bortezomib (first compound 0.003162 µM); 0.17 with Carfilzomib + Bortezomib (first compound 0.01 µM); 0.195 in the test with Carfilzomib + Bortezomib (first compound 0.03162 µM); 0.197 with Carfilzomib + Bortezomib (first compound 0.1 µM); 0.308 in the test with Crizotinib + Pemetrexed (first compound 0.01 µM); 0.403 with Crizotinib + Pemetrexed (first compound 0.03162 µM). Further, the relative viability with Crizotinib + Pemetrexed (first compound 0.1 µM) stood at 0.334; with Crizotinib + Pemetrexed (first compound 0.3162 µM), 0.37; with Crizotinib + Pemetrexed (first compound 1 µM), 0.408; with Olaparib + Foretinib (first compound 0.08 µM) it was 1.2; with Olaparib + Foretinib (first compound 0.253 µM), 0.996; with Olaparib + Foretinib (first compound 2.53 µM), 1.15. Moreover, the relative viability in the test with Olaparib + Foretinib (first compound 8 µM) came out at 1.35; with Olaparib + Decitabine (first compound 0.08 µM) it was 0.432; in the test with Olaparib + Decitabine (first compound 0.253 µM), 0.39; with Olaparib + Decitabine (first compound 2.53 µM) it was 0.32; in the test with Olaparib + Decitabine (first compound 8 µM), 0.354.
Turning to NCI-H1651, the relative viability with Carfilzomib + Bortezomib (first compound 0.001 µM) worked out at 0.895; with Carfilzomib + Bortezomib (first compound 0.003162 µM), 0.836; with Carfilzomib + Bortezomib (first compound 0.01 µM), 0.647; with Carfilzomib + Bortezomib (first compound 0.03162 µM) it was 0.292; in the test with Carfilzomib + Bortezomib (first compound 0.1 µM), 0.134; with Crizotinib + Pemetrexed (first compound 0.01 µM), 0.545. The relative viability turned out to be 0.369 in the test with Crizotinib + Pemetrexed (first compound 0.03162 µM); 0.65 in the test with Crizotinib + Pemetrexed (first compound 0.1 µM); 0.378 in the test with Crizotinib + Pemetrexed (first compound 0.3162 µM); 0.535 in the test with Crizotinib + Pemetrexed (first compound 1 µM); 0.828 in the test with Olaparib + Foretinib (first compound 0.08 µM); 0.681 with Olaparib + Foretinib (first compound 0.253 µM). The relative viability with Olaparib + Foretinib (first compound 2.53 µM) was 0.544; in the test with Olaparib + Foretinib (first compound 8 µM), 0.301; with Olaparib + Decitabine (first compound 0.08 µM), 0.356; with Olaparib + Decitabine (first compound 0.253 µM), 0.277; with Olaparib + Decitabine (first compound 2.53 µM), 0.224; with Olaparib + Decitabine (first compound 8 µM), 0.168.
For the cell line NCI-H1666, the relative viability was found to be 0.987 with Carfilzomib + Bortezomib (first compound 0.001 µM); 0.888 with Carfilzomib + Bortezomib (first compound 0.003162 µM); 0.771 with Carfilzomib + Bortezomib (first compound 0.01 µM); 0.188 with Carfilzomib + Bortezomib (first compound 0.03162 µM); 0.218 with Carfilzomib + Bortezomib (first compound 0.1 µM); 0.826 with Crizotinib + Pemetrexed (first compound 0.01 µM). The relative viability with Crizotinib + Pemetrexed (first compound 0.03162 µM) was 0.814; in the test with Crizotinib + Pemetrexed (first compound 0.1 µM), 0.87; with Crizotinib + Pemetrexed (first compound 0.3162 µM) it was 0.808; in the test with Crizotinib + Pemetrexed (first compound 1 µM), 0.82; with Olaparib + Foretinib (first compound 0.08 µM) it was 0.936; with Olaparib + Foretinib (first compound 0.253 µM), 0.867. The relative viability stood at 0.793 in the test with Olaparib + Foretinib (first compound 2.53 µM); 0.823 with Olaparib + Foretinib (first compound 8 µM); 0.778 with Olaparib + Decitabine (first compound 0.08 µM); 0.604 in the test with Olaparib + Decitabine (first compound 0.253 µM); 0.636 with Olaparib + Decitabine (first compound 2.53 µM); 0.597 with Olaparib + Decitabine (first compound 8 µM).

The values are drawn from the supplement of paper PMC10307832.
